This assay has as its system P388 leukemia ip, CD2F1 mice, survival T/C. The experiment in a line: NCI In Vivo Anticancer Drug Screen. Data for tumor model P388 Leukemia (intraperitoneal) in CD2F1 (CDF1) mice. The settings on record: endpoint: median survival time, higher = longer survival. Put shortly: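 Mice carrying the transplanted tumor received test compound or vehicle. Survival was recorded in each group, and the value is the treated-group measurement divided by that of the vehicle-treated control group.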

Several values for one entry are separate records, joined by “and”; a condition that tells them apart may be missing. Equal values may be shown once. Toxic doses and inconclusive results are not listed.

`CC(=O)O[C@H]1C(=O)[C@@]2(C)[C@H]([C@H](OC(=O)c3ccccc3)[C@]3(O)C[C@H](OC(=O)[C@H](O)[C@@H](NC(=O)c4ccccc4)c4ccccc4)C(C)=C1C3(C)C)[C@]1(OC(C)=O)CO[C@@H]1C[C@@H]2O`: the T/C was 118 % of control (dose: 1.1 mg/kg/injection, schedule: Q01DX005 (ip), vehicle: other); 98 % of control (dose: 1.1 mg/kg/injection, schedule: Q01DX005 (iv), vehicle: other); 106 % of control (dose: 1.1 mg/kg/injection, schedule: Q01DX009 (oral), vehicle: other); 106 % of control (dose: 1.25 mg/kg/injection, schedule: Q01DX009 (ip), vehicle: Klucel (hydroxypropylcellulose) (HPC)); 106 % of control (dose: 1.25 mg/kg/injection, schedule: Q01DX009 (sc), vehicle: Klucel (hydroxypropylcellulose) (HPC)); 115 % of control (dose: 1.7 mg/kg/injection, schedule: Q01DX005 (ip), vehicle: other). Moreover, the T/C was 106 % of control (dose: 1.7 mg/kg/injection, schedule: Q01DX005 (iv), vehicle: other); 160 % of control (dose: 1.7 mg/kg/injection, schedule: Q03HX024 (ip), vehicle: other); 124 % of control (dose: 2.5 mg/kg/injection, schedule: Q01DX005 (ip), vehicle: Klucel (hydroxypropylcellulose) (HPC)); 112 % of control (dose: 2.5 mg/kg/injection, schedule: Q01DX009 (ip), vehicle: Klucel (hydroxypropylcellulose) (HPC)); 100 % of control (dose: 2.5 mg/kg/injection, schedule: Q01DX009 (oral), vehicle: Klucel (hydroxypropylcellulose) (HPC)); 99 % of control (dose: 2.5 mg/kg/injection, schedule: Q01DX009 (sc), vehicle: Klucel (hydroxypropylcellulose) (HPC)). The T/C is 106 % of control (dose: 2.6 mg/kg/injection, schedule: Q01DX001 (ip), vehicle: other); 94 % of control (dose: 2.6 mg/kg/injection, schedule: Q01DX001 (iv), vehicle: other); 115 % of control (dose: 2.6 mg/kg/injection, schedule: Q01DX005 (ip), vehicle: other); 97 % of control (dose: 2.6 mg/kg/injection, schedule: Q01DX005 (iv), vehicle: other); 153 % of control (dose: 2.6 mg/kg/injection, schedule: Q03HX024 (ip), vehicle: other); 87 % of control (dose: 2.6 mg/kg/injection, schedule: Q04DX003 (iv), vehicle: other). Moreover, the T/C runs as follows: (dose: 3.6 mg/kg/injection, schedule: Q01DX005 (ip), vehicle: Klucel (hydroxypropylcellulose) (HPC)) 161 % of control; (dose: 4.0 mg/kg/injection, schedule: Q01DX001 (iv), vehicle: other) 95 % of control; (dose: 4.0 mg/kg/injection, schedule: Q01DX005 (ip), vehicle: other) 120 % of control; (dose: 4.0 mg/kg/injection, schedule: Q01DX009 (oral), vehicle: other) 96 % of control; (dose: 4.0 mg/kg/injection, schedule: Q03HX008 (ip), vehicle: other) 156 % of control; (dose: 4.0 mg/kg/injection, schedule: Q04DX003 (ip), vehicle: other) 120 % of control. The T/C was 87 % of control (dose: 4.0 mg/kg/injection, schedule: Q04DX003 (iv), vehicle: other); 116 % of control (dose: 5.0 mg/kg/injection, schedule: Q01DX009 (ip), vehicle: Klucel (hydroxypropylcellulose) (HPC)); 99 % of control (dose: 5.0 mg/kg/injection, schedule: Q01DX009 (oral), vehicle: Klucel (hydroxypropylcellulose) (HPC)); 98 % of control (dose: 5.0 mg/kg/injection, schedule: Q01DX009 (sc), vehicle: Klucel (hydroxypropylcellulose) (HPC)); 106 % of control (dose: 6.0 mg/kg/injection, schedule: Q01DX001 (ip), vehicle: other); 112 % of control (dose: 6.0 mg/kg/injection, schedule: Q01DX005 (iv), vehicle: other). Moreover, the T/C (dose: 6.0 mg/kg/injection, schedule: Q01DX009 (oral), vehicle: other) was 99 % of control; the T/C (dose: 6.0 mg/kg/injection, schedule: Q03HX008 (ip), vehicle: other) is 178 % of control; the T/C (dose: 6.0 mg/kg/injection, schedule: Q04DX003 (iv), vehicle: other) was 89 % of control; the T/C (dose: 9.0 mg/kg/injection, schedule: Q01DX001 (ip), vehicle: other) is 115 % of control; the T/C (dose: 9.0 mg/kg/injection, schedule: Q01DX001 (iv), vehicle: other) was 106 % of control; the T/C (dose: 9.0 mg/kg/injection, schedule: Q01DX005 (iv), vehicle: other) is 118 % of control. For the same compound, the T/C by setting is: (dose: 9.0 mg/kg/injection, schedule: Q01DX009 (oral), vehicle: other) 97 % of control; (dose: 10.0 mg/kg/injection, schedule: Q01DX009 (ip), vehicle: Klucel (hydroxypropylcellulose) (HPC)) 100 % of control and 106 % of control; (dose: 10.0 mg/kg/injection, schedule: Q01DX009 (oral), vehicle: Klucel (hydroxypropylcellulose) (HPC)) 99 % of control; (dose: 10.0 mg/kg/injection, schedule: Q01DX009 (sc), vehicle: Klucel (hydroxypropylcellulose) (HPC)) 96 % of control; (dose: 12.5 mg/kg/injection, schedule: Q04DX003 (ip), vehicle: Klucel (hydroxypropylcellulose) (HPC)) 150 % of control and 160 % of control; (dose: 16.7 mg/kg/injection, schedule: Q01DX005 (ip), vehicle: Klucel (hydroxypropylcellulose) (HPC)) 96 % of control. For the same compound, the T/C is, setting by setting: (dose: 20.0 mg/kg/injection, schedule: Q01DX009 (ip), vehicle: Klucel (hydroxypropylcellulose) (HPC)) 88 % of control; (dose: 20.0 mg/kg/injection, schedule: Q01DX009 (oral), vehicle: Klucel (hydroxypropylcellulose) (HPC)) 98 % of control; (dose: 20.0 mg/kg/injection, schedule: Q01DX009 (sc), vehicle: Klucel (hydroxypropylcellulose) (HPC)) 97 % of control; (dose: 21.6 mg/kg/injection, schedule: Q04DX003 (ip), vehicle: Klucel (hydroxypropylcellulose) (HPC)) 157 % of control; (dose: 25.0 mg/kg/injection, schedule: Q04DX003 (ip), vehicle: Klucel (hydroxypropylcellulose) (HPC)) 151 % of control and 155 % of control; (dose: 40.0 mg/kg/injection, schedule: Q01DX009 (oral), vehicle: Klucel (hydroxypropylcellulose) (HPC)) 104 % of control. Besides, the T/C was 124 % of control (dose: 50.0 mg/kg/injection, schedule: Q04DX003 (ip), vehicle: Klucel (hydroxypropylcellulose) (HPC)); 107 % of control (dose: 60.0 mg/kg/injection, schedule: Q04DX003 (ip), vehicle: Klucel (hydroxypropylcellulose) (HPC)); 98 % of control (dose: 80.0 mg/kg/injection, schedule: Q01DX009 (oral), vehicle: Klucel (hydroxypropylcellulose) (HPC)); 99 % of control (dose: 160.0 mg/kg/injection, schedule: Q01DX009 (oral), vehicle: Klucel (hydroxypropylcellulose) (HPC)).
For the compound `COC(=O)C1(N)CCCC1`, the T/C (dose: 100.0 mg/kg/injection, schedule: Q04DX003 (ip), vehicle: saline) is 90 % of control; the T/C (dose: 200.0 mg/kg/injection, schedule: Q04DX003 (ip), vehicle: saline) is 113 % of control; the T/C (dose: 400.0 mg/kg/injection, schedule: Q04DX003 (ip), vehicle: saline) was 109 % of control.
As for `COC(=O)c1ccc(SCC2=Nc3c(nc(N)[nH]c3=O)NCC2)cc1`, the T/C (dose: 12.5 mg/kg/injection, schedule: Q01DX009 (ip), vehicle: distilled water + Tween-80) is 99 % of control; the T/C (dose: 25.0 mg/kg/injection, schedule: Q01DX009 (ip), vehicle: distilled water + Tween-80) was 93 % of control; the T/C (dose: 50.0 mg/kg/injection, schedule: Q01DX009 (ip), vehicle: distilled water + Tween-80) is 90 % of control; the T/C (dose: 100.0 mg/kg/injection, schedule: Q01DX009 (ip), vehicle: distilled water + Tween-80) was 90 % of control.
In the case of `CC1=CC2(C)C3C(=O)NC(=O)C3C1C1(C)C3C(=O)NC(=O)C3C21` (centres undefined), the T/C (dose: 25.0 mg/kg/injection, schedule: Q01DX009 (ip), vehicle: Klucel (hydroxypropylcellulose) (HPC)) is 103 % of control; the T/C (dose: 50.0 mg/kg/injection, schedule: Q01DX009 (ip), vehicle: Klucel (hydroxypropylcellulose) (HPC)) is 108 % of control; the T/C (dose: 100.0 mg/kg/injection, schedule: Q01DX009 (ip), vehicle: Klucel (hydroxypropylcellulose) (HPC)) was 109 % of control; the T/C (dose: 200.0 mg/kg/injection, schedule: Q01DX009 (ip), vehicle: Klucel (hydroxypropylcellulose) (HPC)) was 97 % of control.
As to `O=C(O)CC1C=CC2C=CC1C=C2` (centres undefined), the T/C is, setting by setting: (dose: 50.0 mg/kg/injection, schedule: Q01DX005 (ip), vehicle: saline with Tween-80) 101 % of control; (dose: 100.0 mg/kg/injection, schedule: Q01DX005 (ip), vehicle: saline with Tween-80) 100 % of control; (dose: 200.0 mg/kg/injection, schedule: Q01DX005 (ip), vehicle: saline with Tween-80) 99 % of control.
On to `CCn1c(O)c(N=NC(=S)c2ccc3ccccc3n2)c2ccccc21`, for which the T/C runs as follows: (dose: 50.0 mg/kg/injection, schedule: Q01DX009 (ip), vehicle: saline) 104 % of control; (dose: 100.0 mg/kg/injection, schedule: Q01DX009 (ip), vehicle: saline) 96 % of control; (dose: 200.0 mg/kg/injection, schedule: Q01DX009 (ip), vehicle: saline) 86 % of control.

For the origin of these results see PubChem BioAssay AID330 (DTP/NCI, 2004).
